# Data reported in publication PMC6373673, “Purified PEGylated human glucagon-like peptide-2 reduces the severity of irradiation-induced acute radiation enteritis in rats” (Journal of Radiation Research, 2018).
# Key:
# TNF-α = assay: Intestinal TNF-α by sandwich ELISA after X-ray irradiation; type: in vivo, Sprague Dawley (SD) rats; settings: SD rats, 8 Gy abdominal X-ray, small intestine homogenate 48 h after, mean ± S.D., n = 10
# Description: (§1) Sixty adult male Sprague Dawley (SD) rats weighing 220–250 g were included in our study. Rats were subjected to 1 week of preliminary conditioning, during which time they received standard pellet rat chow and water ad libitum. They were housed in a temperature-and humidity-controlled environment, two animals per cage, with a 12-h light/12-h dark cycle. The Principles of Laboratory Animal Care (NIH Publication 85e23, revised 1996) were followed. Animal study protocols were approved by the Ethics Committee of the Fourth Military Medical University. The experiment was carried out at the Department of Pharmacy, Tangdu Hospital, Fourth Military Medical University.
# (§2) X-ray irradiation was performed using a linear accelerator (Siemens primask) adjusted to provide X-ray irradiation, and carried out at the Department of Radiology and Oncology at the Tangdu Hospital. All of the animals were anesthetized with an intramuscular injection of pentobarbital sodium (100 mg/kg) and subjected to a single dose of 8 Gy abdominal X-radiation. The dose was delivered at a rate of 400 monitor units/min (1100 rad, 116.5 cGy/min, 100 cm source–skin distance) using a conventional radiation source, while the other parts of the body were carefully shielded.
# Rats were randomized into six groups (Groups A–F). […] The remaining rats were subjected to a single dose of 8 Gy of abdominopelvic X-radiation and randomized further into five groups (Groups B–F). […] Briefly, rats were anesthetized with 100 mg/kg pentobarbital sodium, positioned supine, and subjected to a single fraction of 8 Gy delivered at a specific depth through abdominopelvic fields using X-rays at the rate of 0.74 Gy/min, while the other parts of the body were carefully shielded. […]
# Malondialdehyde (MDA) levels, glutathione (GSH) content, and the activities of super oxide-dismutase (SOD) and glutathione peroxidase (GPx) were determined in the small intestine using commercial assay kits (Biyuntian Co., China) according to the manufacturer’s protocols. The protein content ratio was determined by Pierce™ BCA Protein Assay Kit (Thermo Fisher Scientific Inc., Rockford, IL, USA). […] Total protein concentrations of tissue homogenates were detected by a Pierce™ BCA Protein Assay Kit (Thermo Scientific; Rockford, IL, USA). The levels of tumor necrosis factor-alpha (TNF-α) (Invitrogen; Carlsbad, CA, USA) and interleukin-2 (IL-2) (Bioo Scientific; Austin, TX, USA) in the tissue samples were determined using commercially available sandwich ELISA kits, according to the protocol recommended by the manufacturer. Results were recorded as the ratio of detected protein (TNF-α, IL-2) (pg/ml) to the amount of total protein (mg/ml).
# [1] = test system: oxidative stress markers (MDA, SOD, GSH, GSH-Px) in the small intestine; assay: Intestinal MDA, SOD, GSH and GSH-Px (commercial assay kits) after X-ray irradiation; type: in vivo, Sprague Dawley (SD) rats; settings: SD rats, 8 Gy abdominal X-ray; for Intestinal GSH-Px activity / Intestinal SOD activity / Intestinal content of GSH / Intestinal content of MDA: small intestine 48 h after, mean ± S.D., n = 10
# Description: as §1, §2
# (§3) Rats were randomized into six groups (Groups A–F). […] The remaining rats were subjected to a single dose of 8 Gy of abdominopelvic X-radiation and randomized further into five groups (Groups B–F). […] Briefly, rats were anesthetized with 100 mg/kg pentobarbital sodium, positioned supine, and subjected to a single fraction of 8 Gy delivered at a specific depth through abdominopelvic fields using X-rays at the rate of 0.74 Gy/min, while the other parts of the body were carefully shielded. Radiated rats were allowed to recover from the anesthetic and GLP-2 or Mono-PEG-hGLP-2 was administered by intraperitoneal injection. • Group A: non-X-ray irradiated (control). • Group B: X-ray irradiated. • Group C: pretreated with 3 μg of Mono-PEG-hGLP-2 in 0.3 ml of saline 5 min before X-ray irradiation. • Group D: pretreated with 10 μg of Mono-PEG-hGLP-2 in 0.3 ml of saline 5 min before X-ray irradiation. • Group E: pretreated with 30 μg of Mono-PEG-hGLP-2 in 0.3 ml of saline 5 min before X-ray irradiation. • Group F: pretreated with 30 μg of GLP-2 in 0.3 ml of saline 5 min before X-ray irradiation.
# Malondialdehyde (MDA) levels, glutathione (GSH) content, and the activities of super oxide-dismutase (SOD) and glutathione peroxidase (GPx) were determined in the small intestine using commercial assay kits (Biyuntian Co., China) according to the manufacturer’s protocols. The protein content ratio was determined by Pierce™ BCA Protein Assay Kit (Thermo Fisher Scientific Inc., Rockford, IL, USA). All of the values were normalized to total intestinal protein. Small intestine tissue (20 mg) was homogenized in lysis buffer (150 mM NaCl, 0.1% SDS, 0.1% NP-40, 20 mM Tris-HCl pH 7.5) and protease inhibitor cocktail using a Tissue Lyser II homogenizer (Qiagen; Hilden, Germany). Total protein concentrations of tissue homogenates were detected by a Pierce™ BCA Protein Assay Kit (Thermo Scientific; Rockford, IL, USA). The levels of tumor necrosis factor-alpha (TNF-α) (Invitrogen; Carlsbad, CA, USA) and interleukin-2 (IL-2) (Bioo Scientific; Austin, TX, USA) in the tissue samples were determined using commercially available sandwich ELISA kits, according to the protocol recommended by the manufacturer. Results were recorded as the ratio of detected protein (TNF-α, IL-2) (pg/ml) to the amount of total protein (mg/ml).
# [2] = test system: irradiation-induced acute radiation enteritis in rats; assay: Clinical, gross, histological and morphometric changes of the small intestine in irradiation-induced acute radiation enteritis; type: in vivo, Sprague Dawley (SD) rats; design: key to Shortening of villi (histologic) / Architectural disarray (histologic) / Diarrhea / Abdominal distention / Intestinal dilatation (gross) / Mucosal ulceration (gross) / Edema (gross): (–) = absent; (+) = present; Number of villi: unit not given here; settings: SD rats, 8 Gy abdominal X-ray; for Abdominal distention / Architectural disarray (histologic) / Diarrhea / Edema (gross) / Intestinal dilatation (gross) / Mucosal ulceration (gross) / Shortening of villi (histologic): killed 48 h after; for Protection against radiation-induced intestinal injury (villi integrity, histology): i.p. pretreatment 5 min before irradiation, result in words
# Description: as §1, §2, §3
# Animals were killed 48 h after X-ray irradiation, and laparotomies were performed. Immediately after the laparotomy, the small intestine (jejunum) was examined and removed. Two-centimeter segments of the jejunum and segments of the intestine showing edema and change in color (purple) were resected. Luminal contents were washed with 0.9% NaCl by injecting saline through the lumen of the small bowel segments. Tissue samples were pinned out on a paraffin block and floated upside down in 10% buffered formalin overnight, dehydrated, and embedded in paraffin. Sections of 4 μm were cut with a Leica sliding microtome (SM 2000R, Nussbach, Germany) and slides, containing a minimum of 10 sections, were stained with hematoxylin and erosin stains. Some representative intestine sections were processed for ultrastructural studies. Sections were evaluated quantitatively and qualitatively in a blinded fashion.
# For histological assessment, villous height (from the base to the tip of the villi), crypt height (from the base to the tip of each crypt), and the number of villi per square millimeter was determined based on individual intestinal segments at five separate microscopic fields for each animal. They were recorded as the mean values using ocular micrometer-adapted light microscopy at a magnification of ×100.
# [3] = GLP-2 in vivo, introduction statement, no reference given; cited from earlier work
# Description: Glucagon-like peptide-2 (GLP-2) is a 33-amino acid peptide derived from the post-translational processing of proglucagon in enteroendocrine L-cells and cerebral neurons. GLP-2 exerts diverse effects related to the regulation of gastrointestinal growth and function, including stimulation of mucosal growth, inhibition of apoptosis, increased nutrient absorption, inhibition of gastric emptying and gastric acid secretion, reduction of intestinal permeability, stimulation of intestinal blood flow, and relaxation of intestinal smooth muscle. GLP-2 h ...
# NF-κB = NF-κB expression in intestine (immunohistochemistry and Western blot) after X-ray irradiation; type: in vivo, Sprague Dawley (SD) rats; settings: SD rats, 8 Gy abdominal X-ray
# Description: as §1, §2
# Rats were randomized into six groups (Groups A–F). […]
# The expression of NF-κB was analyzed by Western blotting. […]
# [4] = 30 μg i.p. 5 min before irradiation
# [5] = 30 μg i.p. 5 min before irradiation, jejunum 48 h after, five microscopic fields per animal, ×100, mean ± SD
# [6] = 30 μg i.p. in 0.3 ml saline 5 min before irradiation
# [7] = 3 μg i.p. 5 min before irradiation
# [8] = 10 μg i.p. 5 min before irradiation
# [9] = 3 μg i.p. 5 min before irradiation, jejunum 48 h after, five microscopic fields per animal, ×100, mean ± SD
# [10] = 3 μg i.p. in 0.3 ml saline 5 min before irradiation
# [11] = 10 μg i.p. in 0.3 ml saline 5 min before irradiation
molecule,measurement,setting,value
"CC[C@H](C)[C@H](NC(=O)[C@H](Cc1ccccc1)NC(=O)[C@H](CC(=O)O)NC(=O)[C@H](CCCNC(=N)N)NC(=O)[C@H](C)NC(=O)[C@H](C)NC(=O)[C@H](CC(C)C)NC(=O)[C@H](CC(N)=O)NC(=O)[C@H](CC(=O)O)NC(=O)[C@H](CC(C)C)NC(=O)[C@@H](NC(=O)[C@@H](NC(=O)[C@H](CC(N)=O)NC(=O)[C@H](CCSC)NC(=O)[C@H](CCC(=O)O)NC(=O)[C@H](CC(=O)O)NC(=O)[C@H](CO)NC(=O)[C@H](Cc1ccccc1)NC(=O)[C@H](CO)NC(=O)CNC(=O)[C@H](CC(=O)O)NC(=O)[C@H](C)NC(=O)[C@@H](N)Cc1c[nH]cn1)[C@@H](C)O)[C@@H](C)CC)C(=O)N[C@@H](CC(N)=O)C(=O)N[C@@H](Cc1c[nH]c2ccccc12)C(=O)N[C@@H](CC(C)C)C(=O)N[C@H](C(=O)N[C@@H](CCC(N)=O)C(=O)N[C@H](C(=O)N[C@@H](CCCCN)C(=O)N[C@H](C(=O)N[C@H](C(=O)N[C@@H](CC(=O)O)C(N)=O)[C@@H](C)O)[C@@H](C)CC)[C@@H](C)O)[C@@H](C)CC [GLP-2, hGLP-2(1–33) amide, reference compound]",Intestinal content of TNF-α,TNF-α; [4],9.78 ± 1.06 pg/mg prot
same,Protective effect on intestinal antioxidant enzymes and inflammatory factors,"[1]; 30 μg i.p. 5 min before irradiation, result in words",no significant protective effect
same,Intestinal GSH-Px activity,[1]; [4],246.1 ± 37.8 U/mg prot
same,Intestinal SOD activity,[1]; [4],35.27 ± 4.66 U/mg prot
same,Intestinal content of GSH,[1]; [4],18.22 ± 3.44 mg/g prot
same,Intestinal content of MDA,[1]; [4],5.51 ± 0.47 nmol/mg prot
same,Crypt height,[2]; [5],113.8 ± 10.9 μm
same,Height of villi,[2]; [5],229.7 ± 15.9 μm
same,Number of villi,[2]; [5],32.1 ± 4.1
same,Abdominal distention,[2]; [6],+
same,Architectural disarray (histologic),[2]; [6],+
same,Diarrhea,[2]; [6],+
same,Edema (gross),[2]; [6],+
same,Intestinal dilatation (gross),[2]; [6],+
same,Mucosal ulceration (gross),[2]; [6],+
same,Shortening of villi (histologic),[2]; [6],+
same,"Protection against radiation-induced intestinal injury (villi integrity, histology)",[2],did not protect mice against radiation-induced intestinal injury
same,plasma half-life,[3],7 min
Mono-PEG-hGLP-2: human GLP-2 peptide conjugated to one 5 kDa mPEG chain by reaction with mPEG5k-SPA,Intestinal content of TNF-α,TNF-α; [7],7.68 ± 0.77 pg/mg prot
same,Intestinal content of TNF-α,TNF-α; [8],6.12 ± 1.01 pg/mg prot
same,Intestinal content of TNF-α,TNF-α; [4],4.78 ± 0.67 pg/mg prot
same,Intestinal GSH-Px activity,[1]; [7],331.2 ± 22.1 U/mg prot
same,Intestinal SOD activity,[1]; [7],40.47 ± 5.41 U/mg prot
same,Intestinal content of GSH,[1]; [7],20.22 ± 4.87 mg/g prot
same,Intestinal content of MDA,[1]; [7],5.27 ± 0.44 nmol/mg prot
same,Intestinal GSH-Px activity,[1]; [8],367.5 ± 42.3 U/mg prot
same,Intestinal SOD activity,[1]; [8],47.45 ± 8.24 U/mg prot
same,Intestinal content of GSH,[1]; [8],24.70 ± 10.22 mg/g prot
same,Intestinal content of MDA,[1]; [8],4.48 ± 0.37 nmol/mg prot
same,Intestinal GSH-Px activity,[1]; [4],412.7 ± 65.7 U/mg prot
same,Intestinal SOD activity,[1]; [4],56.11 ± 6.01 U/mg prot
same,Intestinal content of GSH,[1]; [4],24.01 ± 4.17 mg/g prot
same,Intestinal content of MDA,[1]; [4],4.01 ± 0.22 nmol/mg prot
same,Crypt height,[2]; [9],121.6 ± 6.3 μm
same,Height of villi,[2]; [9],268.1 ± 11.6 μm
same,Abdominal distention,[2]; [10],+
same,Architectural disarray (histologic),[2]; [10],+
same,Diarrhea,[2]; [10],–
same,Edema (gross),[2]; [10],+
same,Intestinal dilatation (gross),[2]; [10],+
same,Mucosal ulceration (gross),[2]; [10],+
same,Shortening of villi (histologic),[2]; [10],+
same,Height of villi,"[2]; 10 μg i.p. 5 min before irradiation, jejunum 48 h after, five microscopic fields per animal, ×100, mean ± SD",437.1 ± 19.4 μm
same,Abdominal distention,[2]; [11],–
same,Architectural disarray (histologic),[2]; [11],–
same,Diarrhea,[2]; [11],–
same,Edema (gross),[2]; [11],+
same,Intestinal dilatation (gross),[2]; [11],–
same,Mucosal ulceration (gross),[2]; [11],–
same,Shortening of villi (histologic),[2]; [11],+
same,Crypt height,[2]; [5],188.5 ± 8.3 μm
same,Height of villi,[2]; [5],507.9 ± 21.1 μm
same,Abdominal distention,[2]; [6],–
same,Architectural disarray (histologic),[2]; [6],–
same,Diarrhea,[2]; [6],–
same,Edema (gross),[2]; [6],–
same,Intestinal dilatation (gross),[2]; [6],–
same,Mucosal ulceration (gross),[2]; [6],–
same,Shortening of villi (histologic),[2]; [6],–
same,"Protection against radiation-induced intestinal injury (villi integrity, histology)",[2],markedly protected the integrity of the villi and preserved the villous height
same,NF-κB staining in intestine versus X-ray-alone-treated rats,"NF-κB; 3, 10, 30 μg i.p. 5 min before irradiation, immunohistological staining",decreased NF-κB staining in a dose-dependent manner
same,NF-κB expression in intestine versus model,"NF-κB; moderate to high doses (10, 30 μg i.p.) before irradiation, P < 0.01",significantly inhibited NF-κB expression
